Some test systems named below: PC-3; OVCAR-3; NCI/ADR-RES; IGROV-1; UACC-62; LOX IMVI; RPMI-8226; M14; A549; NCI-H460; Malme-3M; SK-MEL-2; CAKI-1; NCI-H23; EKVX; Hs-578T; SK-OV-3; HCC 2998; MDA-MB-231; SF-295.
Holding throughout (assay): DTP human tumour cell line panel, 48 h

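48-hour exposure; five concentrations; linearly interpolated endpoints. At the GI50, growth is halved.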 Calls of active or inactive are those of the source. No stated cut-off is given here; in the data, active = GI50 up to about 1.1 µM and inactive = higher. Bounds are passed on as bounds.

As for `O=C1CS/C(=N/N=C/c2cn(Cc3ccc(Cl)cc3Cl)c3ccccc23)N1`, the GI50 with PC-3 was 19.6 µM (inactive); with OVCAR-3 it was 59 µM (inactive); in the assay with NCI/ADR-RES it was 24.5 µM (inactive); in the assay with IGROV-1, 73.3 µM (inactive); with UACC-62, 91.2 µM (inactive); with LOX IMVI, 25.2 µM (inactive). Besides, the GI50 is 52.1 µM (inactive) in the assay on RPMI-8226; 36.5 µM (inactive) with M14; 63 µM (inactive) in the assay with A549; 56.4 µM (inactive) in the assay on NCI-H460; 76.4 µM (inactive) in the assay with Malme-3M; 23.6 µM (inactive) with SK-MEL-2. The GI50 was 39.1 µM (inactive) with CAKI-1; 58.3 µM (inactive) with NCI-H23; 20.9 µM (inactive) with EKVX; 25.8 µM (inactive) with Hs-578T; > 100 µM (inactive) in the assay on SK-OV-3; 32.2 µM (inactive) in the assay on HCC 2998. The GI50 with MDA-MB-231 is 17 µM (inactive); with SF-295 it was 64.4 µM (inactive).

Take `CC(=N/NC(=S)N(C)C)/C(=N\NC(=S)N(C)C)c1ccccc1`: the GI50 in the assay on PC-3 is 2 µM (inactive); with OVCAR-3 it was 1.76 µM (inactive); in the assay with NCI/ADR-RES, 2.47 µM (inactive); in the assay with IGROV-1, 1.66 µM (inactive); in the assay on UACC-62, 1.94 µM (inactive); in the assay with LOX IMVI, 3.08 µM (inactive). For the same compound, the GI50 with RPMI-8226 was 2.74 µM (inactive); in the assay with M14, 1.97 µM (inactive); in the assay with A549 it was 2.76 µM (inactive); in the assay with NCI-H460 it was 1 µM (active); in the assay on Malme-3M it was 1.75 µM (inactive); with SK-MEL-2, 1.99 µM (inactive). For the same compound, the GI50 in the assay on CAKI-1 was 2.53 µM (inactive); with NCI-H23, 2.32 µM (inactive); in the assay with EKVX, 1.85 µM (inactive); with Hs-578T it was 3.11 µM (inactive); in the assay with SK-OV-3, 1.98 µM (inactive); in the assay with HCC 2998, 0.989 µM (active). The values for the GI50 in the assay with MDA-MB-231 and in the assay with SF-295 were 3.1 µM (inactive) and 2.08 µM (inactive), respectively.

In the case of `COc1ccc(-c2oc3cc(O)c(OC)c(O)c3c(=O)c2O)cc1` [BETULETOL], the GI50 was 9.55 µM (inactive) in the assay with PC-3; 9.38 µM (inactive) in the assay with OVCAR-3; 6.73 µM (inactive) in the assay on NCI/ADR-RES; 15.1 µM (inactive) with IGROV-1; 10.3 µM (inactive) with UACC-62; 6.19 µM (inactive) in the assay on LOX IMVI. The GI50 is 6.1 µM (inactive) in the assay on RPMI-8226; 17.8 µM (inactive) with M14; 3.33 µM (inactive) in the assay with A549; 1.74 µM (inactive) with NCI-H460; 10.5 µM (inactive) in the assay with Malme-3M; > 51.8 µM (inactive) in the assay on SK-MEL-2. For the same compound, the GI50 in the assay on CAKI-1 was 6.03 µM (inactive); with NCI-H23, 5.62 µM (inactive); with EKVX, 18.9 µM (inactive); with Hs-578T, 15.2 µM (inactive); in the assay with SK-OV-3, 6.22 µM (inactive); in the assay on HCC 2998, 19.3 µM (inactive). Besides, the GI50 with MDA-MB-231 was 12.9 µM (inactive); with SF-295 it was 6.08 µM (inactive).

In the case of `CC1=C2CC3=C(C)C(=O)O[C@H]3C[C@@H](C)[C@@H]2CC1` [AMERICANOLIDE D], the GI50 in the assay on PC-3, with OVCAR-3, in the assay on NCI/ADR-RES, with IGROV-1, with UACC-62 and in the assay with LOX IMVI was > 100 µM (inactive) throughout. Besides, the GI50 in the assay on RPMI-8226, in the assay on M14, in the assay with NCI-H460, in the assay on Malme-3M, in the assay with SK-MEL-2 and in the assay with CAKI-1 was > 100 µM (inactive) throughout. The GI50 in the assay with NCI-H23, in the assay on EKVX, in the assay with Hs-578T, in the assay with SK-OV-3, with HCC 2998 and in the assay on MDA-MB-231 was > 100 µM (inactive) in each case. Further, in the assay with SF-295, the GI50 was > 100 µM (inactive).

As for `O=C1c2ccccc2-c2c1c(-c1ccc(F)cc1)nc1ccc3ccccc3c21`, the GI50 with PC-3, in the assay with OVCAR-3, in the assay on NCI/ADR-RES, in the assay with UACC-62, with LOX IMVI and with RPMI-8226 was > 100 µM (inactive) throughout. Also, the GI50 in the assay on M14, in the assay on A549, in the assay with NCI-H460, in the assay on Malme-3M, in the assay on SK-MEL-2 and in the assay with CAKI-1 was > 100 µM (inactive) each time. Moreover, the GI50 with NCI-H23, in the assay with EKVX, in the assay on Hs-578T, in the assay with SK-OV-3, in the assay with HCC 2998 and in the assay on MDA-MB-231 was > 100 µM (inactive) throughout. Further, the GI50 in the assay on SF-295 is > 100 µM (inactive).

On to `CC1CN=C(N(Cc2ccccc2)C(=O)Nc2ccc(Cl)c(Cl)c2)S1` (stereo unspecified), for which the GI50 with PC-3 is 31.4 µM (inactive); in the assay on OVCAR-3 it was 50.9 µM (inactive); with NCI/ADR-RES, 21.4 µM (inactive); with IGROV-1, 32.5 µM (inactive); with LOX IMVI, 21.4 µM (inactive); in the assay on RPMI-8226, 33.7 µM (inactive). Further, the GI50 is 18.3 µM (inactive) with M14; 36.9 µM (inactive) in the assay on A549; 35.7 µM (inactive) in the assay on NCI-H460; 99.3 µM (inactive) in the assay with Malme-3M; 23.4 µM (inactive) in the assay with SK-MEL-2; 36.1 µM (inactive) in the assay with CAKI-1. Also, the GI50 in the assay on NCI-H23 is 43.1 µM (inactive); in the assay on EKVX it was 53.3 µM (inactive); with Hs-578T, 53.1 µM (inactive); in the assay with SK-OV-3, 52.4 µM (inactive); with HCC 2998 it was > 10 µM (inactive); with MDA-MB-231 it was 27.2 µM (inactive). For the same compound, the GI50 in the assay with SF-295 was > 10 µM (inactive).

Take `COc1cc2c(cc1OC)C(C)N(C)c1c-2c(OC(C)=O)cc2cc(OC)c(OC)cc12` (stereo unspecified): the GI50 in the assay with PC-3 is 14.7 µM (inactive); in the assay on OVCAR-3 it was 4.29 µM (inactive); in the assay with NCI/ADR-RES, 7.48 µM (inactive); in the assay with UACC-62 it was 12.5 µM (inactive); in the assay on LOX IMVI, 13.2 µM (inactive); in the assay on RPMI-8226, 8.69 µM (inactive). The GI50 with M14 is 11.7 µM (inactive); with A549, 16.9 µM (inactive); in the assay with NCI-H460, 6.38 µM (inactive); with Malme-3M, 3.72 µM (inactive); in the assay with SK-MEL-2 it was 13.5 µM (inactive); with CAKI-1, 16.1 µM (inactive). In addition, the GI50 in the assay with NCI-H23 was 15.4 µM (inactive); in the assay with EKVX, 13.2 µM (inactive); in the assay with Hs-578T, 19.1 µM (inactive); in the assay with SK-OV-3, 27.7 µM (inactive); with HCC 2998, 15.6 µM (inactive); with MDA-MB-231 it was 5.92 µM (inactive). Besides, the GI50 in the assay on SF-295 was 11.8 µM (inactive).

What is called GI50 is the concentration giving 50% growth inhibition.

The values are drawn from ChEMBL document CHEMBL1201862, “PubChem BioAssay data set” (2004).
